These results are taken from patent US12162836B2, “N-acyl-{4-[(4-aryl-phenyl)sulfonylmethyl]piperidine} compounds and their therapeutic use” (Modern Biosciences Limited, priority 2019, dated 2024).

For this data set, the system named is human, rat (Sprague Dawley) and dog (Beagle) hepatocytes. The experiment in a line: Metabolite identification (biaryl metabolite detection) in cryopreserved hepatocytes. It is filed as in vitro ADME. The note with it: primary hepatocyte incubations, 10 μM, final time point (60 minutes). How it is done: The formation of metabolites in humans, rats and dogs was assessed to determine the propensity of the compounds to form a biaryl metabolite.
In vitro studies on the metabolism of drugs are usually performed using liver preparations such as isolated perfused livers, liver slices, liver homogenates, isolated cryopreserved hepatocytes, subcellular liver fractions (S9, cytosol, and microsomes), or recombinant metabolizing enzymes overexpressed on non-expressing cell systems, particularly CYP enzymes. Cryopreserved hepatocytes contain all the enzymes and co-factors needed for phase I and phase II drug metabolism, making them an excellent in vitro model for assessment of drug metabolic stability and metabolite profiling.
Cryopreserved human, rat (Sprague Dawley) and dog (Beagle) hepatocytes were revived from liquid nitrogen and plated at a seeding density of 2×10^6 cells/mL (>95% viability). Following a 15 minute incubation at 37° C. a sample was removed for a zero (0) minute time point assessment. […]
All samples were processed for analysis by protein precipitation using 500 μL ice-cold acetonitrile and analysed with a fit-for-purpose LC-MS/MS method.
At the completion of the study, the results were expressed as detection of the biaryl metabolite at the final time point.

Regarding `CC(=O)N1CCC(CS(=O)(=O)c2ccc(-c3ccc(F)cc3F)cc2)CC1` [NASMP-01, 1-(4-(((2′,4′-Difluoro-[1,1′-biphenyl]-4-yl)sulfonyl)methyl)piperidin-1-yl)ethan-1-one], the “Biaryl metabolite detected?” value is listed as “No”.
